From patent publication US20060063736A1, “Compositions and methods for inhibiting mucin-type O-linked glycosylation” (priority 2004, published 2006) come the findings set out here.

For test [1], the target named is T1, mppGalNAcT-2 (Mus musculus, UniProt Q6PB93).
T1 construct: plasmids encoding truncated secreted ppGalNAcTs-1 to −5, -7, -10 and -11; made in house; host or cells: COS-7
Nature of the test: ELLA for ppGalNAcTs, mppGalNAcT-2. The settings on record: 20 μM UDP-GalNAc, 50 μM EA2 peptide 4. It counts as biochemical, murine. How it is done:
(§1) COS-7 cells were transiently transfected with plasmids encoding truncated secreted ppGalNAcTs-1 to −5, -7, -10 and -11 as previously described. Hagen et al. (1997) J. Biol. Chem. 272:13843-13848. The crude conditioned medium was used as the enzyme source.
(§2) Standard reaction conditions for ppGalNAcT assays were as follows. The reaction mixture contained the following components in a final volume of 25 μL: 10 mM MnCl2, 40 mM sodium cacodylate, 40 mM β-mercaptoethanol, 0.1% Triton X-100, pH 6.5, 5 μL of conditioned media, and various concentrations of EA2 peptide 4, UDP-GalNAc and inhibitor. All uridine-based compounds were dissolved in dimethyl sulfoxide (DMSO). […] Reaction rates were linear over the period monitored (20-30 min).
(§3) 96-Well NeutrAvidin-coated plates were prewashed 3 times with 200 μL of wash buffer (25 mM Tris, 150 mM NaCl, 0.1% bovine serum albumin (BSA) (w/v), and 0.05% Tween (v/v), pH 7.2). […] After 3 washes with 200 μL of PBS, bound HPA-HRP was quantified by the addition of 100 μL of TMB peroxide solution. […] HRP activity was terminated by the addition of 50 μL of 2 N H2SO4 and the resulting solution was analyzed at 450 nm using a UV/Vis microtiter plate reader. The amount of product generated by the ppGalNAcT was extrapolated from absorbance values using an equation fit to the standard curve derived from Origin 6.1 software.

For test [2], the target named is T2, mppGalNAcT-11 (Mus musculus, UniProt Q921L8).
T2 construct: plasmids encoding truncated secreted ppGalNAcTs-1 to −5, -7, -10 and -11; made in house; host or cells: COS-7
T2 sequence (Q921L8 30-608 limits assumed): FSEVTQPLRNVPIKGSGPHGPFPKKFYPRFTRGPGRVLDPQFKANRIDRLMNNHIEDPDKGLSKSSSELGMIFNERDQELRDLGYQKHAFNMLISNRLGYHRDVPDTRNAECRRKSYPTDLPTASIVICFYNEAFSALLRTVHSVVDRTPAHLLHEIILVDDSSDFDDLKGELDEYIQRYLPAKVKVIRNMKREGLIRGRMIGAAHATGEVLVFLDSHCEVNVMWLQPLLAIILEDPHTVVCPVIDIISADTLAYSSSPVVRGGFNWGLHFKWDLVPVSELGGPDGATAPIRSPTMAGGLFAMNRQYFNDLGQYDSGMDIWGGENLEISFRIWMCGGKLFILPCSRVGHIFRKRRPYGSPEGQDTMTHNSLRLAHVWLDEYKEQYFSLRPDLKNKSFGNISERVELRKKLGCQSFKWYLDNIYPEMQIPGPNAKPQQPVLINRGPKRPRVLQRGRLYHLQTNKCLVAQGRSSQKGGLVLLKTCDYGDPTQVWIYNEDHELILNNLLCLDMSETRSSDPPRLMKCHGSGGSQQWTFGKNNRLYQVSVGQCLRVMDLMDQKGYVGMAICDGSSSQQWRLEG
Nature of the test: ELLA for ppGalNAcTs, mppGalNAcT-11. It counts as biochemical, murine. The settings on record: 20 μM UDP-GalNAc, 50 μM EA2 peptide 4. The procedure:
as §1, §2, §3

The target in test [3] is T3, β1-4galactosyltransferase (β1-4GalT) (Bos taurus, UniProt P08037).
T3 construct: purchased Calbiochem
T3 sequence (P08037 1-402): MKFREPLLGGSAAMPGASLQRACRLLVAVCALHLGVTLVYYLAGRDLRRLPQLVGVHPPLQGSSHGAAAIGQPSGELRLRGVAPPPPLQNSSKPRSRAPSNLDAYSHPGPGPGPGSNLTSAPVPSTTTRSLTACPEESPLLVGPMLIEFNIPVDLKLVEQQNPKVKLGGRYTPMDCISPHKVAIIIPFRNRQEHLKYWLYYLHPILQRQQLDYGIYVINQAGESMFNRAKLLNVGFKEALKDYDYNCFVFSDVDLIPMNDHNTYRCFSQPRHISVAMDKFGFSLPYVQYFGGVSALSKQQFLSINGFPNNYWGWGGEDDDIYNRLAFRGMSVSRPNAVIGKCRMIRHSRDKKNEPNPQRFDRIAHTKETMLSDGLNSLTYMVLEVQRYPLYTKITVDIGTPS
Nature of the test: Continuous assay for β1-4GalT activity. The class given is biochemical, bovine. The settings on record: for inhibitory activity against β1-4GalT: highest concentration tested (500 μM). How it is done:
The enzymatic reactions contained the following components in a final volume of 100 μL: 20 mM MnCl2, 100 mM sodium cacodylate, pH 6.5, 5 U of pyruvate kinase, 5 U of lactate dehydrogenase, 2 mM PEP, 0.2 mM NADH with 0.4 mU of β1-4GalT, 1 mM βOMeGlcNAc, 25 μM UDP-Gal or 1.0 mU of α1-3GalT, 1 mM LacNAc, 100 μM UDP-Gal and various concentrations of 1-68A or 2-68A in 2.5% DMSO. The reaction mixtures were incubated at 37° C. for 10 min before the reaction was initiated by the addition of UDP-Gal. The change in absorbance was monitored over 20 min at 340 nm.
To determine the selectivity of the compounds among the broader family of UDP-sugar utilizing enzymes, 1-68A and 2-68A were tested against bovine β1-4galactosyltransferase (β1-4GalT) and porcine α1-3galactosyltransferase (α1-3GalT), using a previously reported continuous colorimetric assay. Fitzgerald et al. (1970) Anal. Biochem. 36:43-61. Neither compound was active against β1-4GalT or α1-3GalT at the highest concentration tested (500 μM) (Entries 9 and 10, Table 1).

T1 sequence (Q6PB93 25-570 limits assumed): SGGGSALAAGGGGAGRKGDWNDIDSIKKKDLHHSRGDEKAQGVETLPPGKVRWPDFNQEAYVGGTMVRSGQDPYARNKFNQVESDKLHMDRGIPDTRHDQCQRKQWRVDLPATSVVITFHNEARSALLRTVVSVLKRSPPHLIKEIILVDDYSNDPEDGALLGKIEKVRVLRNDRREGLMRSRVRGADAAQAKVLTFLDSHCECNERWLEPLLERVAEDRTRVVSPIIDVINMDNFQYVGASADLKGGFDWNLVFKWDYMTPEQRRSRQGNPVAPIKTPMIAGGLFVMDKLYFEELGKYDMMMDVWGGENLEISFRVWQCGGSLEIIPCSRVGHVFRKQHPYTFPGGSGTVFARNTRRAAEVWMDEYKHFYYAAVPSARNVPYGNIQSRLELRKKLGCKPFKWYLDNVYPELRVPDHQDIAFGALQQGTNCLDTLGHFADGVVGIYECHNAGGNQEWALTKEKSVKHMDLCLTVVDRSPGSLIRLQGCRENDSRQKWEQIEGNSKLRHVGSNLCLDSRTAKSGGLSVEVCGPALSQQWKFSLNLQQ

A word on the IC50: it is the concentration at which inhibition is half-maximal. A higher IC50 goes with lower potency. Consider `O=c1ccn([C@@H]2O[C@H](CON=Cc3ccc(O)c(O)c3O)[C@@H](O)[C@H]2O)c(=O)[nH]1` [1-68A], for which the IC50 in test [1] is 15 ± 1 µM; in test [2], 39 ± 3 µM; in test [3], > 500 µM. The “inhibitory activity against β1-4GalT” value in test [3] is given as “lack of inhibitory activity”.
For `O=C(CON=Cc1ccc(O)c(O)c1O)NC[C@H]1O[C@@H](n2ccc(=O)[nH]c2=O)[C@H](O)[C@@H]1O` [2-68A], in that order: 18 ± 2 µM, 32 ± 3 µM, > 500 µM and “lack of inhibitory activity”.
